In publication PMC3914206:

Legend:
Assay type in all cases: binding
Set-up in all cases: KINOMEscan: ABL1(F317L)-phosphorylated / KINOMEscan: ABL1(H396P)-nonphosphorylated / KINOMEscan: ABL1(H396P)-phosphorylated / KINOMEscan: ABL1(M351T)-phosphorylated / KINOMEscan: ABL1(T315I)-phosphorylated / KINOMEscan: ABL1-nonphosphorylated / KINOMEscan: ABL1-phosphorylated / KINOMEscan: ACVR2A / KINOMEscan: ACVR2B / KINOMEscan: ADCK3 / KINOMEscan: ADCK4 / KINOMEscan: AKT1 / KINOMEscan: AKT3 / KINOMEscan: ALK / KINOMEscan: ARK5 / KINOMEscan: AURKA / KINOMEscan: AURKC / KINOMEscan: BIKE / KINOMEscan: BMPR1A / KINOMEscan: BMPR1B / KINOMEscan: BMX / KINOMEscan: BRK / KINOMEscan: BRSK1 / KINOMEscan: BRSK2 / KINOMEscan: CAMK1 / KINOMEscan: CAMK1D / KINOMEscan: CAMK1G / KINOMEscan: CAMK2A / KINOMEscan: CAMK2B / KINOMEscan: AAK1 / KINOMEscan: CAMK2D / KINOMEscan: CAMK2G / KINOMEscan: ABL1(F317I)-nonphosphorylated / KINOMEscan: ABL1(F317I)-phosphorylated / KINOMEscan: ABL1(F317L)-nonphosphorylated: unit: % Ctrl
Conditions in all cases: Compound Concentration 10 µM
[1] = biological target: T1, panel of 442 kinases (Homo sapiens, UniProt Q09013)
T1 construct: purchased KINOMEscan
T1 sequence (Q09013 1-629): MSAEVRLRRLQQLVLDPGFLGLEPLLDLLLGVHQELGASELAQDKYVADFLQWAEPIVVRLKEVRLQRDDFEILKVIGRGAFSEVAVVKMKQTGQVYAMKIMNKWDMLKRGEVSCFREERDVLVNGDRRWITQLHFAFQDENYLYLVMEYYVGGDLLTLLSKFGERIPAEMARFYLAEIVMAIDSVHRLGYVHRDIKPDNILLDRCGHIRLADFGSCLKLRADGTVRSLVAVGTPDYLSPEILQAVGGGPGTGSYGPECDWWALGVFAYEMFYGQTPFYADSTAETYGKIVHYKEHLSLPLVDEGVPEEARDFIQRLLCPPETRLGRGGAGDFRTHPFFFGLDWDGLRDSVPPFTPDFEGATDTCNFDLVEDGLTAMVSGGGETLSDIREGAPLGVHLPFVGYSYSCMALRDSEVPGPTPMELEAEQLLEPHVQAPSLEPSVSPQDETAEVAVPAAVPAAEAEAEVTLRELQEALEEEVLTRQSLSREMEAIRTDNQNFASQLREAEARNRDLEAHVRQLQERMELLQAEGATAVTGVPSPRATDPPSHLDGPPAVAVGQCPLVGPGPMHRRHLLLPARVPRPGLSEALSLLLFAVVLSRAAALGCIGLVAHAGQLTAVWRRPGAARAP
Description: (§1) We assessed the selectivity of members of this scaffold using the KINOMEscan methodology across a near comprehensive panel of 442 kinases [[18,27]].

[2] = biological target: T2, panel of 442 kinases (Homo sapiens, UniProt Q8IU85)
T2 construct: purchased KINOMEscan
Description: as §1

[3] = biological target: T3, panel of 442 kinases (Homo sapiens, UniProt P50750)
T3 construct: purchased KINOMEscan
Description: as §1

T3 sequence (P50750 whole entry): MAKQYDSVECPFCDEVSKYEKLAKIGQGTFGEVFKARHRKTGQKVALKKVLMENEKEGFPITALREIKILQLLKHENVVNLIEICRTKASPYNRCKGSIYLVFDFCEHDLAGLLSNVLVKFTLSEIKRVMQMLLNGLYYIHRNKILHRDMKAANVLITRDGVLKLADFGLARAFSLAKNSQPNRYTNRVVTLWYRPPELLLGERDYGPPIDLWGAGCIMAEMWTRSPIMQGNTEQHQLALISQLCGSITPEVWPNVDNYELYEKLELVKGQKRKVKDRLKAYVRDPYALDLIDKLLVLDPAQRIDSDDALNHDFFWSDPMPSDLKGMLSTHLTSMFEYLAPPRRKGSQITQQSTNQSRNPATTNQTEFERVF
T2 sequence (Q8IU85 whole entry): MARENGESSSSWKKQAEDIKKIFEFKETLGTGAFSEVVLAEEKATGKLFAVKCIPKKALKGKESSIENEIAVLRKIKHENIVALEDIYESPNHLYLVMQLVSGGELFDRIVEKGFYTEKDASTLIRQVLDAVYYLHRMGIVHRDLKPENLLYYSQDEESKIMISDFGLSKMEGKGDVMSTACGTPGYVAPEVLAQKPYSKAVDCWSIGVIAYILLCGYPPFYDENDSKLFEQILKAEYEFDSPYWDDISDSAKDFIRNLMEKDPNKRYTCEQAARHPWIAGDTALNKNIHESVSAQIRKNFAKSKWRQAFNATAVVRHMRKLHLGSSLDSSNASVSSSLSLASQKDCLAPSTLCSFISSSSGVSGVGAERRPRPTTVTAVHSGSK

Row | SMILES | KINOMEscan: DMPK [1] | KINOMEscan: CAMK1D [2] | KINOMEscan: CDK9 [3]
1 | CCOc1cc(C(=O)N2CCC(N3CCN(C)CC3)CC2)ccc1Nc1ncc2c(n1)N(C1CCCC1)c1ccccc1C(=O)N2C [Compound 26] | 100 | 61 | 100
2 | COc1cc(C(=O)N2CCC(N3CCN(C)CC3)CC2)ccc1Nc1ncc2c(n1)N1CCc3cccc(c31)C(=O)N2C [Compound 24] | 85 |  | 96
3 | COc1cc(C(=O)N2CCC(N3CCN(C)CC3)CC2)ccc1Nc1ncc2c(n1)N(C)c1ccccc1C(=O)N2C [15 (LRRK2-IN-1)] | 100 | 69 | 100
4 | COc1cc(C(=O)N2CCC(N3CCN(C)CC3)CC2)ccc1Nc1ncc2c(n1)N(C1CCCC1)c1ccccc1C(=O)N2C [Compound 25, 11-cyclopentyl-2-((2-methoxy-4-(4-(4-methylpiperazin-1-yl)piperidine-1-carbonyl)phenyl)amino)-5-methyl-5H-benzo[e]pyrimido[5,4-b][1,4]diazepin-6(11H)-one] | 96 | 77 | 98
